Test results published in US4287190A, “Complexes of bivalent copper” (priority 1979, dated 1981).

What was measured:
Zymosan paw oedema = test: Zymosan-induced paw oedema in rats, topically applied copper-salicylates; details: topical, DMSO-glycerol 4:1 v/v, 5 ml/kg
Carrageenan paw oedema = test: Carrageenan-induced paw oedema in rats, topically applied copper-salicylates; details: topical
Description: All materials applied to shaved dorsal skin
in vehicle (= DMSO--glycerol), 4:1 v/v, 5 ml/kg except as
*Vehicle = ethanolglycerol (4:1 v/v)

[1] = test system: polyarthritis induced in rats with Mycobacterium tuberculosis in squalane; test: Polyarthritis induced with Mycobacterium tuberculosis in squalane; assay type: in vivo; details: Cu[H Sal]2. DMSO formulation
[2] = test system: artificially induced inflammation in rats (sodium carrageenan); test: Carrageenan foot swelling after topical treatment (Example 5, FIG. 2); assay type: in vivo, Male Wistar rats; details: topical, 154, 231, 462 and 770 mg, about 6 hours before carrageenan
Description: Male Wistar rats (average weight 250 g) were anaesthetised with diethyl ether and an area of c. 20 sq.cm was shaven high on their backs. The rats were then separated into 7 groups. Group 1, the control rats were not treated. Group 2 rats were treated by the application of a mixture of alcohol and glycerol (4:1), the carrier used for the compound Cu[H Sal]2. C2 H5 OH. Group 3 rats were treated with a 7% w/v solution of salicylic acid in a mixture of alcohol and glycerol (4:1). Group 4, 5, 6 and 7 rats were treated with amounts of Cu[H Sal]2. C2 H5 OH composition prepared according to example 3 containing 154 mg, 231 mg, 462 mg, and 770 mg respectively, of Cu[H Sal]2. C2 H5 OH.
About 6 hours after the topical treatment of the rats, inflammation was induced in a foot of each rat in each of the groups by the injection of 0.1 ml of 1% saline solution of sodium carrageenan into a foot pad of each rat. The inflammation of the feet of the rats in each group was then monitored by the swelling of the feet with a micrometer screw-gauge.
The results are shown in FIG. 2 wherein the curves represent the increase in paw thickness of the rats with time after the injection of the inflammatory agent. The curves 1 to 7 represent the swelling of the paws of the rats of groups 1 to 7 respectively.

[3] = Wistar, 2 Hour, DMSO-glycerol 4:1 v/v, 5 ml/kg
[4] = Wistar, 4 Hour, DMSO-glycerol 4:1 v/v, 5 ml/kg
[5] = DA × Lewis, 2 Hour, DMSO-glycerol 4:1 v/v, 5 ml/kg
[6] = DA × Lewis, 4 Hour, DMSO-glycerol 4:1 v/v, 5 ml/kg

Molecule | % Inhibition of paw oedema induced with Zymosan (Zymosan paw oedema; DA × Lewis, 2 Hour) | % Inhibition of paw oedema induced with Zymosan (Zymosan paw oedema; DA × Lewis, 4 Hour) | % Inhibition of paw oedema induced with Zymosan (Zymosan paw oedema; Wistar, 1 Hour) | % Inhibition of paw oedema induced with Zymosan (Zymosan paw oedema; Wistar, 2 Hour) | % Inhibition of paw oedema induced with Carrageenan (Carrageenan paw oedema; [3]) | % Inhibition of paw oedema induced with Carrageenan (Carrageenan paw oedema; [4]) | % Inhibition of paw oedema induced with Carrageenan (Carrageenan paw oedema; [5]) | % Inhibition of paw oedema induced with Carrageenan (Carrageenan paw oedema; [6]) | effect on the progress of polyarthritis [1] | % Inhibition of paw oedema induced with Carrageenan (Carrageenan paw oedema; Wistar, 2 Hour, ethanol-glycerol 4:1 v/v, 5 ml/kg) | % Inhibition of paw oedema induced with Carrageenan (Carrageenan paw oedema; Wistar, 2 Hour, ethanol-glycerol 4:1 v/v, 15 ml/kg) | % Inhibition of paw oedema induced with Carrageenan (Carrageenan paw oedema; Wistar, 4 Hour, ethanol-glycerol 4:1 v/v, 5 ml/kg) | % Inhibition of paw oedema induced with Carrageenan (Carrageenan paw oedema; Wistar, 4 Hour, ethanol-glycerol 4:1 v/v, 15 ml/kg) | anti-inflammatory effect (increase in paw thickness with time) [2]
CC(=O)[O-].CC(=O)[O-].[Cu+2] [Cu(OAc)] | 14% | 04% | 12% | 12% | 04% | 11% | – | – | – | – | – | – | – | –
CS(C)=O.O=C([O-])c1ccccc1O.O=C([O-])c1ccccc1O.[Cu+2] [Cu[H Sal]2 . DMSO, copper salicylate DMSO] | 36% | 22% | 43% | 21% | 46% | 53% | 47% | 39% | effective on the progress of polyarthritis | – | – | – | – | –
O=C(O)c1ccccc1O [Salicylic acid (alone), Salicylic acid] | -08% | -05% | 22% | 16% | 14% | 18% | 44% | 32% | – | – | – | – | – | –
copper salicylate ethanolate [Cu[H Sal]2. C2 H5 OH] | – | – | – | – | – | – | – | – | – | 24% | 58% | 32% | 53% | clearly shows the anti-inflammatory effect
